Laboratory results reported in ChEMBL document CHEMBL5226308, “Amide-Amine Replacement in Indole-2-carboxamides Yields Potent Mycobactericidal Agents with Improved Water Solubility” (ACS Med Chem Lett, 2021).
The source made the active and inactive calls. No cut-off for these calls is given here.

Legend:
[1] = Ratio of MIC90 for antimycobacterial activity against Mycobacterium tuberculosis H37Rv M16-5 harboring mmpL3 G758A/G253E mutant to MIC90 for antimycobacterial activity against wild type Mycobacterium tuberculosis H37Rv ATCC 27294; type: functional
[2] = Ratio of MIC90 for antimycobacterial activity against Mycobacterium tuberculosis H37Rv M16-4 harboring mmpL3 T2051C/V684A mutant to MIC90 for antimycobacterial activity against wild type Mycobacterium tuberculosis H37Rv ATCC 27294; type: functional
[3] = Ratio of MIC90 for antimycobacterial activity against Mycobacterium tuberculosis H37Rv M16-2 harboring mmpL3 G758A/G253E mutant to MIC90 for antimycobacterial activity against wild type Mycobacterium tuberculosis H37Rv ATCC 27294; type: functional
[4] = Ratio of MIC90 for antimycobacterial activity against Mycobacterium tuberculosis H37Rv M47-1 harboring mmpL3 G2098A/A700T mutant to MIC90 for antimycobacterial activity against wild type Mycobacterium tuberculosis H37Rv ATCC 27294; type: functional
[5] = Ratio of MIC90 for antimycobacterial activity against Mycobacterium tuberculosis H37Rv M47-2 harboring mmpL3 A730T/I244F mutant to MIC90 for antimycobacterial activity against wild type Mycobacterium tuberculosis H37Rv ATCC 27294; type: functional
[6] = Ratio of MIC90 for antimycobacterial activity against Mycobacterium tuberculosis H37Rv M47-3 harboring mmpL3 Ins2128CAG/Ins710Q mutant to MIC90 for antimycobacterial activity against wild type Mycobacterium tuberculosis H37Rv ATCC 27294; type: functional
[7] = Ratio of MIC90 for antimycobacterial activity against Mycobacterium tuberculosis H37Rv M16-3 harboring mmpL3 T2051G/V684G mutant to MIC90 for antimycobacterial activity against wild type Mycobacterium tuberculosis H37Rv ATCC 27294; type: functional
[8] = Ratio of MIC90 for antimycobacterial activity against Mycobacterium tuberculosis H37Rv M33-1 harboring mmpL3 G1927A/V643M mutant to MIC90 for antimycobacterial activity against wild type Mycobacterium tuberculosis H37Rv ATCC 27294; type: functional
[9] = Ratio of MIC90 for antimycobacterial activity against Mycobacterium tuberculosis H37Rv M47-4 harboring mmpL3 G2041A/V681I mutant to MIC90 for antimycobacterial activity against wild type Mycobacterium tuberculosis H37Rv ATCC 27294; type: functional
[10] = Ratio of MIC90 for antimycobacterial activity against Mycobacterium tuberculosis H37Rv M16-1 harboring mmpL3 T854C/V258A mutant to MIC90 for antimycobacterial activity against wild type Mycobacterium tuberculosis H37Rv ATCC 27294; type: functional
[11] = system: Mycobacterium tuberculosis; test: Antimycobacterial activity against Mycobacterium tuberculosis H37Rv M16-5 harboring G253E mutant assessed as inhibition of bacterial growth incubated for 7 days by broth dilution method; type: functional, organism-based; conditions: time 7.0 day
[12] = system: Mycobacterium tuberculosis; test: Antimycobacterial activity against Mycobacterium tuberculosis H37Rv M47-1 harboring A700T mutant assessed as inhibition of bacterial growth incubated for 7 days by broth dilution method; type: functional, organism-based; conditions: time 7.0 day
[13] = system: Mycobacterium tuberculosis; test: Antimycobacterial activity against Mycobacterium tuberculosis H37Rv M16-4 harboring V684A mutant assessed as inhibition of bacterial growth incubated for 7 days by broth dilution method; type: functional, organism-based; conditions: time 7.0 day
[14] = system: Mycobacterium tuberculosis; test: Antimycobacterial activity against Mycobacterium tuberculosis H37Rv M47-4 harboring V681I mutant assessed as inhibition of bacterial growth incubated for 7 days by broth dilution method; type: functional, organism-based; conditions: time 7.0 day
[15] = system: Mycobacterium tuberculosis; test: Antimycobacterial activity against Mycobacterium tuberculosis H37Rv M47-3 harboring Ins710Q mutant assessed as inhibition of bacterial growth incubated for 7 days by broth dilution method; type: functional, organism-based; conditions: time 7.0 day
[16] = system: Mycobacterium tuberculosis; test: Antimycobacterial activity against Mycobacterium tuberculosis H37Rv M16-3 harboring V684G mutant assessed as inhibition of bacterial growth incubated for 7 days by broth dilution method; type: functional, organism-based; conditions: time 7.0 day
[17] = system: Mycobacterium tuberculosis; test: Antimycobacterial activity against Mycobacterium tuberculosis H37Rv M33-1 harboring V643M mutant assessed as inhibition of bacterial growth incubated for 7 days by broth dilution method; type: functional, organism-based; conditions: time 7.0 day
[18] = system: Mycobacterium tuberculosis; test: Antimycobacterial activity against Mycobacterium tuberculosis H37Rv M16-1 harboring V285A mutant assessed as inhibition of bacterial growth incubated for 7 days by broth dilution method; type: functional, organism-based; conditions: time 7.0 day
[19] = system: Mycobacterium tuberculosis; test: Antimycobacterial activity against Mycobacterium tuberculosis H37Rv M47-2 harboring I244F mutant assessed as inhibition of bacterial growth incubated for 7 days by broth dilution method; type: functional, organism-based; conditions: time 7.0 day

Row | SMILES | Ratio [1] | Ratio [2] | Ratio [3] | Ratio [4] | Ratio [5] | Ratio [6] | Ratio [7] | Ratio [8] | Ratio [9] | Ratio [10] | Activity [11] | Activity [12] | Activity [13] | Activity [14] | Activity [15] | Activity [16] | Activity [17] | Activity [18] | Activity [19]
1 | FC(F)(F)c1ccc2cc(CNC3CCCCCCC3)[nH]c2c1 | 5 | 5 | 5 | 5 | 5 | 5 | 5 | 5 | 5 | 5 |  |  |  |  |  |  |  |  | 
2 | c1ccc2sc(CNC3CCCCCCC3)cc2c1 | 5 | 5 | 5 | 5 | 5 | 5 | 5 | 5 | 5 | 5 |  |  |  |  |  |  |  |  | 
3 | O=C(NC1CCCCCCC1)c1cc2ccccc2[se]1 |  |  |  |  |  |  |  |  |  |  | inactive | inactive | inactive | inactive | inactive | inactive | inactive | inactive | inactive
4 | O=C(NC1CCCCCCC1)c1cc2ccc(C(F)(F)F)cc2[nH]1 | 5 | 5 | 5 | 5 | 5 | 5 | 5 | 5 | 5 | 5 |  |  |  |  |  |  |  |  | 
5 | c1ccc2[se]c(CNC3CCCCCCC3)cc2c1 |  |  |  |  |  |  |  |  |  |  | inactive | inactive | inactive | inactive | inactive | inactive | inactive | inactive | inactive
6 | O=C(NC1CCCCCCC1)c1cc2ccccc2s1 |  |  |  |  |  |  |  |  |  |  | inactive | inactive | inactive | inactive | inactive | inactive | inactive | inactive | inactive
